Molecules are shown by their SMILES.

In data set [1] the test system is rats. In words: Reversal of the effect of the mGluR2 PAM JNJ-42153605-induced inhibition of scopolamine-induced hyperlocomotion (SCOP JNJ-42153605). The settings on record: Rattus norvegicus; PO (oral route); rats; reversal criterion total distance >1500 cm. The format is in vivo, rat. The procedure:
2) Reversal of the Effect of the mGluR2 PAM JNJ-42153605-Induced Inhibition of Scopolamine-Induced Hyperlocomotion Apparatus
Motor activity was measured in microprocessor-based motor activity arenas (closed gray PVC cylinders with a height of 39 cm and a diameter of 31 cm). Each arena was placed on an infrared LED (8×8 LEDs) lit box (white PVC squared box; 40×40 cm^2; height 12.5 cm. An infrared-sensitive tube camera and a white light source were mounted to the ceiling above the observation chamber to track the animal. The total distance traveled (cm) was recorded and analyzed using the Noldus Ethovision XT Video Tracking System (Version 7.0.418; Noldus, Wageningen, The Netherlands). The intensity of the light within the activity cages (measured in the centre at the level of the floor) ranged between 4 and 8 LUX.
The rats were pretreated with test compound or vehicle at 60 min before the start of the activity recordings and placed into individual cages. The rats were challenged with JNJ-42153605 (3-(cyclopropylmethyl)-7-(4-phenylpiperidin-1-yl)-8-(trifluoromethyl)[1,2,4]triazolo[4,3-a]pyridine; WO2010/130424; Cid et al. J. Med. Chem. 2012, 55, 8770-8789) (20 mg/kg, i.v.) 30 min before the start of the activity recording combined with scopolamine (0.16 mg/kg, i.v.) just before the start of the activity measurements. Immediately after the injection of scopolamine, the rats were placed into the activity monitors and total distance travelled over the first 30 min was measured.
Solvent-Pretreated Control Rats.
Animals receiving the combination of JNJ-42153605 and scopolamine (n=433) almost always travelled a distance of less than 1500 cm (<1500 cm) (only 2.5% of the control rats travelled a distance of more than 1500 cm (>1500 cm)). On the other hand, animals challenged with scopolamine alone (n=215) always travelled a total distance of more than 1500 cm (>1500 cm) and almost always (in 95.8% of the rats) a distance of more than 4400 cm (>4400 cm). […] For reversal of the inhibitory effect of JNJ-42153605 on the scopolamine-induced hyperlocomotion, the following all-or-none criteria were adopted: (1) reversal: total distance >1500 cm.

Data set [2] deals with T1, human mGlu2 receptor (Homo sapiens, UniProt Q14416).
T1 construct: expressed in transfected cells; host or cells: CHO cells
T1 sequence (Q14416 19-872): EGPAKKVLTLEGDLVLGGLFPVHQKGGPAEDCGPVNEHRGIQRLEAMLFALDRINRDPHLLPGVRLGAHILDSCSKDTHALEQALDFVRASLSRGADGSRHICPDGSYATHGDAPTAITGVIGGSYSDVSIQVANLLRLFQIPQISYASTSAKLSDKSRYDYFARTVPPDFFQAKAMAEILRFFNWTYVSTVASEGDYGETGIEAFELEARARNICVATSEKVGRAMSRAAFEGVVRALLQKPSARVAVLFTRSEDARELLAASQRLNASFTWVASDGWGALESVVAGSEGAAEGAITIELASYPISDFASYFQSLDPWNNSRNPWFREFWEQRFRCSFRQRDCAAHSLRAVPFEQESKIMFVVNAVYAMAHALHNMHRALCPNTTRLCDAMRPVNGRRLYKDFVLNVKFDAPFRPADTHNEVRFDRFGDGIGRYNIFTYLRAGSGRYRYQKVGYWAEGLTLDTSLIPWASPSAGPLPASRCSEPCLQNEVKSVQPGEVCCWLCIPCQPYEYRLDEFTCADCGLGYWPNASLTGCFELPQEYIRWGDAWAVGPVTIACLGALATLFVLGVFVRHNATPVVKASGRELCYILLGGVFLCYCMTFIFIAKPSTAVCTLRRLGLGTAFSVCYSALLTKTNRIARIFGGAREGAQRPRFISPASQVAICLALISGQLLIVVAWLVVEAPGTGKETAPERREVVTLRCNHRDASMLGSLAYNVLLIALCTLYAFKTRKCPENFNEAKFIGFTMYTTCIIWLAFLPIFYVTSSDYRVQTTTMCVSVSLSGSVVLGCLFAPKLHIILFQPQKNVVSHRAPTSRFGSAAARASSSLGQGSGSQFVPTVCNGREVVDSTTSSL
Nature of the data set: [35S]GTPγS binding assay (mGluR2 negative allosteric modulation, glutamate ~EC80 60 μM). The settings on record: for Emax: read-out: GTPγS-hmGluR2 anGT Emax; for IC50: membranes from CHO cells transfected with human mGlu2 receptor, glutamate ~EC80 (60 μM), pIC50 = −log IC50 (M), read-out: GTPγS-hmGluR2 anGT pIC50 (converted). The format is biochemical. The procedure:
1) [^35S]GTPγS Binding Assay
[^35S]GTPγS Binding Assay
Total reaction volume was 200 μl. […] Membrane-bound radioactivity was counted in a Topcount.
Background: Binding of GTPγS marks nucleotide exchange on a G protein.

Setting [3] is: maximal % inhibition relative to the control glutamate response (EC80 glutamate).

Regarding `CNc1ncccc1C(=O)Nc1cnn2c1C(=O)N(c1ccc(C(F)(F)F)cc1)C[C@@H]2C` [Co. No. 194], the melting point came out at 161.97 °C. Further, in data set [1], the ED50 came out at 0.318 mg/kg. Further, in data set [2] (setting [3]), the Emax turned out to be 113%. Moreover, in data set [2], the IC50 is 1.29e-09 M.
On the same counts, the results for `COc1cncc(C(=O)Nc2cnn3c2C(=O)N(c2ccc(C(F)(F)F)c(Cl)c2)C[C@@H]3C)c1` [Co. No. 150] are 133.07 °C, greater than 0.63 mg/kg, 107% and 1.66e-09 M.
`C[C@H]1CN(c2ccc(C(F)(F)F)cc2)C(=O)c2c(NC(=O)c3nccs3)cnn21` [Co. No. 15] displayed a melting point of 213.94 °C. The 50% effective dose (ED50) in data set [1] is greater than 2.5 mg/kg. For the same compound, the maximum response (Emax) in data set [2] (setting [3]) is 111%. Also, in data set [2], the IC50 was 3.24e-09 M.
On the same counts, the results for `COc1cc(N2C[C@H](C)n3ncc(NC(=O)c4ccc(N)nc4)c3C2=O)ccc1C(F)(F)F` [Co. No. 38] are 179.66 °C, greater than 2.5 mg/kg, 109% and 9.12e-09 M.
`COc1ccnc(N)c1C(=O)Nc1cnn2c1C(=O)N(c1ccc(C(F)(F)F)cc1)C[C@@H]2C` (racemic) [Co. No. 193]: the melting point was determined as 248.21 °C. Moreover, the ED50 in data set [1] was greater than 0.63 mg/kg. The Emax in data set [2] (setting [3]) worked out at 106%. Further, the IC50 in data set [2] was 2.88e-09 M.
On the same counts, the results for `Cc1cc(N2C[C@H](C)n3ncc(NC(=O)c4ccccn4)c3C2=O)ccc1C(F)(F)F` [Co. No. 110] are 217.95 °C, greater than 0.63 mg/kg, 107% and 2.34e-09 M.
On the same counts, the results for `C[C@H]1CN(c2ccc(C(F)(F)F)cc2)C(=O)c2c(NC(=O)c3cccc(F)c3)cnn21` [Co. No. 14] are 161.84 °C, greater than 2.5 mg/kg, 102% and 2.75e-09 M.
In the same order, the values of `C[C@H]1CN(c2ccc(C(F)(F)F)c(F)c2)C(=O)c2c(NC(=O)c3cncc(F)c3)cnn21` [Co. No. 124] are 217.01 °C, greater than 0.63 mg/kg, 109% and 9.55e-09 M.
As to `Cc1cncc(C(=O)Nc2cnn3c2C(=O)N(c2ccc(C(F)(F)F)c(F)c2)C[C@@H]3C)c1` [Co. No. 128], the melting point came to 163.67 °C. Also, in data set [1], the 50% effective dose (ED50) is greater than 0.63 mg/kg. The Emax in data set [2] (setting [3]) stood at 103%. Also, in data set [2], the IC50 was 6.92e-09 M.
For the compound `C[C@H]1CN(c2ccc(C(F)(F)F)cc2)C(=O)c2c(NC(=O)c3ccccc3)cnn21` [Co. No. 16], the melting point worked out at 201.48 °C. For the same compound, the ED50 in data set [1] is greater than 2.5 mg/kg. In addition, in data set [2] (setting [3]), the Emax stood at 108%. Also, the IC50 in data set [2] was 3.39e-09 M.
`Cc1cc(C(=O)Nc2cnn3c2C(=O)N(c2ccc(C(F)(F)F)c(Cl)c2)C[C@@H]3C)nc(N)n1` [Co. No. 181]: the melting point worked out at 258.12 °C. Moreover, in data set [1], the 50% effective dose (ED50) is greater than 0.63 mg/kg. In addition, the maximal response (Emax) in data set [2] (setting [3]) is 101%. For the same compound, in data set [2], the IC50 was 5.75e-09 M.
The compound `COc1cncc(C(=O)Nc2cnn3c2C(=O)N(c2ccc(C(F)(F)F)c(Cl)c2)C[C@@H]3C)c1C` [Co. No. 121] yielded a melting point of 160.45 °C. Further, the ED50 in data set [1] is greater than 0.63 mg/kg. The Emax in data set [2] (setting [3]) came out at 106%. Besides, the IC50 in data set [2] was 2.09e-08 M.
On the same counts, the results for `C[C@H]1CN(c2ccc(C(F)(F)F)cc2)C(=O)c2c(NC(=O)c3ccccc3F)cnn21` [Co. No. 11] are 241.79 °C, greater than 2.5 mg/kg, 104% and 2.57e-09 M.
With `COc1cccc(C(=O)Nc2cnn3c2C(=O)N(c2ccc(C(F)(F)F)cc2)C[C@@H]3C)n1` [Co. No. 20], the melting point stood at 190 °C. For the same compound, the ED50 in data set [1] is greater than 2.5 mg/kg. Moreover, the “GTPγS-hmGluR2 anGT Emax” value in data set [2] (setting [3]) was determined as 103%. The IC50 in data set [2] was 4.57e-09 M.
In turn, `COCc1cccc(C(=O)Nc2cnn3c2C(=O)N(c2ccc(C(F)(F)F)cc2)C[C@@H]3C)c1` [Co. No. 30] displayed a melting point of 160.03 °C. Besides, the median effective dose (ED50) in data set [1] was greater than 2.5 mg/kg. The Emax in data set [2] (setting [3]) stood at 113%. The IC50 in data set [2] is 7.08e-09 M.
`C[C@H]1CN(c2ccc(Cl)c(Cl)c2)C(=O)c2c(NC(=O)c3ccc(N)nc3)cnn21` [Co. No. 3] showed a melting point of 189.94 °C. Moreover, in data set [1], the median effective dose (ED50) came to 0.32 mg/kg. Besides, in data set [2] (setting [3]), the maximal effect (Emax) amounted to 110%. The IC50 in data set [2] was 1.62e-09 M.
On the same counts, the results for `COc1cncc(C(=O)Nc2cnn3c2C(=O)N(c2ccc(C(F)(F)F)cc2)C[C@@H]3C)n1` [Co. No. 183] are 185.23 °C, 0.318 mg/kg, 114% and 2.24e-09 M.
`COc1cncc(C(=O)Nc2cnn3c2C(=O)N(c2ccc(C(F)(F)F)cc2)C[C@@H]3C)c1` [Co. No. 32] displayed a melting point of 174.59 °C. The 50% effective dose (ED50) in data set [1] worked out at 1.26 mg/kg. Moreover, the maximum response (Emax) in data set [2] (setting [3]) worked out at 112%. Also, in data set [2], the IC50 is 7.41e-09 M.
For `Cc1cnc(N)c(C(=O)Nc2cnn3c2C(=O)N(c2ccc(Cl)c(Cl)c2)C[C@@H]3C)c1` [Co. No. 199], the melting point was determined as 220.49 °C. In data set [1], the 50% effective dose (ED50) is 0.08 mg/kg. For the same compound, the maximal effect (Emax) in data set [2] (setting [3]) was determined as 109%. In addition, the IC50 in data set [2] is 9.77e-10 M.
On the same counts, the results for `Cc1ccncc1C(=O)Nc1cnn2c1C(=O)N(c1ccc(C(F)(F)F)c(C)c1)C[C@@H]2C` [Co. No. 119] are 200.3 °C, greater than 0.63 mg/kg, 107% and 8.32e-09 M.
On the same counts, the results for `C[C@H]1CN(c2ccc(C(F)(F)F)cc2)C(=O)c2c(NC(=O)c3cccnc3NCCO)cnn21` (racemic) [Co. No. 213] are 168.55 °C, 1.12 mg/kg, 103% and 1.02e-09 M.
On the same counts, the results for `COc1cncc(C(=O)Nc2cnn3c2C(=O)N(c2ccc(C(F)(F)F)c(OC)c2)C[C@@H]3C)c1` [Co. No. 152] are 115.19 °C, greater than 0.63 mg/kg, 106% and 9.77e-09 M.
Take `Cc1cncc(C(=O)Nc2cnn3c2C(=O)N(c2ccc(C(F)(F)F)c(C)c2)C[C@@H]3C)c1` [Co. No. 115]: the melting point was found to be 151.53 °C. In addition, the median effective dose (ED50) in data set [1] was greater than 0.63 mg/kg. In addition, in data set [2] (setting [3]), the Emax stood at 107%. In addition, in data set [2], the IC50 was 3.39e-09 M.
For `COCc1cc(N2C[C@H](C)n3ncc(NC(=O)c4ccc(N)nc4)c3C2=O)ccc1C(F)(F)F` [Co. No. 22], the melting point worked out at 213.77 °C. In addition, the ED50 in data set [1] was greater than 2.5 mg/kg. Moreover, the Emax in data set [2] (setting [3]) was 111%. Further, the IC50 in data set [2] is 4.79e-09 M.
The compound `C[C@H]1CN(c2ccc(Cl)c(Cl)c2)C(=O)c2c(NC(=O)c3ccccn3)cnn21` [Co. No. 105] gave a melting point of 155.04 °C. For the same compound, the 50% effective dose (ED50) in data set [1] is greater than 0.63 mg/kg. For the same compound, in data set [2] (setting [3]), the Emax stood at 109%. In data set [2], the IC50 is 2.63e-09 M.
In the same order, the values of `C[C@H]1CN(c2ccc(C(F)(F)F)c(F)c2)C(=O)c2c(NC(=O)c3cnccn3)cnn21` [Co. No. 127] are 236.55 °C, greater than 0.63 mg/kg, 104% and 6.61e-09 M.
Regarding `COc1cc(N2C[C@H](C)n3ncc(NC(=O)c4ccccn4)c3C2=O)ccc1C(F)(F)F` [Co. No. 111], the melting point amounted to 217.95 °C. Further, in data set [1], the ED50 was greater than 0.63 mg/kg. Moreover, the Emax in data set [2] (setting [3]) stood at 105%. The IC50 in data set [2] was 1.02e-08 M.
In the same order, the values of `COc1cnc(C(=O)Nc2cnn3c2C(=O)N(c2ccc(C(F)(F)F)cc2)C[C@@H]3C)cn1` [Co. No. 39] are 191.33 °C, greater than 2.5 mg/kg, 111% and 9.33e-09 M.
Take `C[C@H]1CN(c2ccc(C(F)(F)F)c(Cl)c2)C(=O)c2c(NC(=O)c3ccccc3)cnn21` [Co. No. 2]: the melting point is 161.54 °C. Besides, the ED50 in data set [1] is greater than 2.5 mg/kg. The Emax in data set [2] (setting [3]) is 105%. For the same compound, the IC50 in data set [2] is 1.32e-09 M.

By ED50 is commonly meant the midpoint of the dose-response relation. In general, melting point refers to the temperature, or range, at which the solid turns liquid. The Emax is the greatest response seen or fitted, relative to the assay's reference.
